The values that follow are results of earlier work, collected in the CATMoS acute toxicity set (Mansouri et al. 2021).

The data set in a line: rat acute oral toxicity. The following applies: in vivo.
The term LD50 denotes the dose expected to kill half of the subjects tested. `CC(OC(C)c1ccccc1)c1ccccc1` (configuration not stated): the LD50 is 9800 mg/kg. On to `O=C(O)c1ccccc1-c1ccccc1CO`, for which the LD50 was 6500 mg/kg. As for `CC(C)(C)OOC(=O)C(C)(C)C`, the LD50 was 4300 mg/kg. With `FC(F)(F)c1nc2ccc(Cl)cc2[nH]1`, the LD50 is 6.82 mg/kg. `CC(C)(C)N`: the LD50 was 96 mg/kg. In the case of `CCN(C(C)=O)c1c(I)cc(I)c(OCCOC(C)C(=O)O)c1I` (configuration not stated), the LD50 is 1600 mg/kg. Regarding `OC[C@@H](O)CN1CCN(c2ccccc2)CC1`, the LD50 was 887 mg/kg. Take `COP(=O)(OC)Sc1ccc([N+](=O)[O-])cc1`: the LD50 was 42.9 mg/kg.

`CCOc1ccc([N+](=O)[O-])cc1`: the LD50 was 3300 mg/kg.

`C=CC(O)CC#N` (configuration not stated): the LD50 was 200 mg/kg. Take `CCCN(CCC)S(=O)(=O)CCNC(=O)N(CCCl)N=O`: the LD50 was 250 mg/kg.

Consider `ClC1=C(Cl)C2(Cl)C(CBr)CC1(Cl)C2(Cl)Cl` (configuration not stated), for which the LD50 was 12500 mg/kg. Regarding `CC(C)OC(=O)c1c[n+](C)c2n(c1=O)C(C)CCC2` (configuration not stated), the LD50 was 1200 mg/kg.

For the molecule `CCS`, the LD50 was 682 mg/kg.

Regarding `Cc1cc(S(=O)(=O)O)cc(C)c1O`, the LD50 is 2650 mg/kg. For `O=Cc1cccc2ccccc12`, the LD50 is 667 mg/kg.

For the molecule `Cc1ccc(C)n1Nc1ccc(N2CCOCC2)nn1`, the LD50 was 2250 mg/kg. With `COC(=O)Cc1ccccc1`, the LD50 was 2550 mg/kg. As to `CN1C(=O)CCS(=O)(=O)C1c1ccc(Cl)cc1` (configuration not stated), the LD50 is 605 mg/kg. As for `CC1=C(C(=O)OCCN(C)Cc2ccc(F)cc2)C(c2cccc3c2OCO3)C(C(=O)OC(C)C)=C(C)N1` (configuration not stated), the LD50 is 64 mg/kg. Turning to `CCOP(=S)(Oc1ccc(C#N)cc1)c1ccccc1` (configuration not stated), the LD50 is 28.5 mg/kg. As for `OCCCCC(O)CO` (configuration not stated), the LD50 is 15500 mg/kg. Turning to `CCCC[P+](CCCC)(CCCC)Cc1ccc(Cl)s1`, the LD50 is 455 mg/kg. `CC(C)N(Cc1ccccc1)C(=O)C(C)(C)C`: the LD50 was 6000 mg/kg. Consider `COc1ccc2c3c1O[C@H]1[C@@H](O)C=C[C@H]4[C@@H](C2)N(C)CC[C@@]341`, for which the LD50 is 85 mg/kg. For the molecule `CCCN=C(C(OC)c1ccccc1)N1CCCCCC1` (configuration not stated), the LD50 was 55 mg/kg. Take `O=C1Nc2ccc(Cl)cc2C(c2ccccc2Cl)=NC1O` (configuration not stated): the LD50 is 4500 mg/kg. Turning to `ClC1(Cl)C2(Cl)C3C4(Cl)C1(Cl)C1(Cl)C4(Cl)C(Cl)(Cl)C3(Cl)C21Cl` (configuration not stated), the LD50 was 200 mg/kg.

Consider `C=CCN(C)N=O`, for which the LD50 was 340 mg/kg. With `CN(C)c1ccc(SC#N)cc1`, the LD50 was 500 mg/kg. As to `CCCCC(CC)CN(CCO)CC(CC)CCCC` (configuration not stated), the LD50 was 4920 mg/kg. Turning to `O=C1c2ccccc2CCC1CNCCc1ccc(O)cc1` (configuration not stated), the LD50 is 650 mg/kg.

With `CC(=O)OCCC1=CC2CC(C1)C2(C)C` (configuration not stated), the LD50 is 3000 mg/kg. For `CN1CCCN(C)C1=O`, the LD50 was 1770 mg/kg.

On to `O=[N+]([O-])c1cc(I)c(O)c(I)c1`, for which the LD50 was 170 mg/kg. On to `COc1ccc2c(c1)N(CCCN(C)C)c1ccccc1S2`, for which the LD50 was 730 mg/kg.

In the case of `CC(C)(Oc1ccc(C(=O)c2ccc(Cl)cc2)cc1)C(=O)O`, the LD50 is 1240 mg/kg. `CCOP(=O)(OCC)SCC(C)(SCC)SCC`: the LD50 is 15 mg/kg. For `CCC1OC1(C)C` (configuration not stated), the LD50 is 3500 mg/kg.

`N#CCCN(CCO)c1ccccc1`: the LD50 was 3210 mg/kg. For the molecule `O=C(O)[C@H]1/C(=C/CO)O[C@@H]2CC(=O)N21`, the LD50 is 7940 mg/kg. As to `c1ccc2[nH]ccc2c1`, the LD50 is 1000 mg/kg. For `CN(N=O)C(N)=O`, the LD50 is 110 mg/kg.

`C[C@H]1CC[C@@H]2[C@@H](C)[C@H]3[C@H](C[C@H]4[C@@H]5CC=C6CC(O[C@@H]7O[C@H](CO)[C@H](O)[C@H](O[C@@H]8O[C@H](CO)[C@@H](O)[C@H](O)[C@H]8O)[C@H]7O[C@H]7O[C@@H](C)[C@H](O)[C@@H](O)[C@H]7O)CC[C@]6(C)[C@H]5CC[C@]34C)N2C1` (some centres not stated): the LD50 is 590 mg/kg. As for `C=CC(=O)OCCCCOC(=O)C=C`, the LD50 was 587 mg/kg. `C#CCC1=C(C)C(OC(=O)C2C(C=C(C)C)C2(C)C)CC1=O` (configuration not stated): the LD50 is 460 mg/kg.

Consider `CCOP(=S)(OCC)SC=C(C)SC`, for which the LD50 is 2.5 mg/kg. Take `CCCCC(CC)(COC(N)=O)COC(N)=O`: the LD50 was 662 mg/kg. For `O=C(O)Cc1ccccc1Nc1c(Cl)cc(Cl)c2ccccc12`, the LD50 was 56.2 mg/kg.

Regarding `OCCCS`, the LD50 is 116 mg/kg. As to `CCCCOC(=O)Cc1ccc(N(CCCl)CCCl)cc1`, the LD50 is 20 mg/kg. Turning to `Nc1ccc2cc(S(=O)(=O)O)cc(O)c2c1N=Nc1ccc(-c2ccc(N=Nc3ccc(O)c(C(=O)O)c3)cc2)cc1`, the LD50 was 22400 mg/kg. Turning to `O=C1CN=C(c2ccccc2)c2cc([N+](=O)[O-])ccc2N1`, the LD50 is 825 mg/kg. With `O=C(CCCN1CCN2Cc3[nH]c4ccccc4c3CC2C1)c1ccc(F)cc1` (configuration not stated), the LD50 is 700 mg/kg. As to `CCCCC(C)(C)[C@H](O)C=C[C@H]1[C@H](C)CC(=O)[C@@H]1CC=CCCCC(=O)O`, the LD50 was 22 mg/kg. As to `CC(C)(C)C(=O)CC#N`, the median lethal dose (LD50) is 283 mg/kg. Consider `COc1c(Cl)cc2[nH]c(C(F)(F)F)nc2c1Cl`, for which the LD50 was 8.03 mg/kg. Turning to `CNC(=O)Oc1cc(C)c(NC(=O)O)c(C)c1`, the LD50 was 71 mg/kg. With `C1CSCCO1`, the LD50 is 2830 mg/kg.

Consider `O=S1(=O)CCN(c2ccccc2)CC1`, for which the LD50 is 800 mg/kg.

In the case of `CC1C(=O)C[C@]2(C(C)C)C[C@H]12` (single isomer, unassigned; (-)), the LD50 is 192 mg/kg. For `C=C1C(=O)O[C@@H]2C[C@@H](C)[C@@H]3C=CC(=O)[C@@]3(C)[C@@H](O)[C@H]12`, the LD50 was 125 mg/kg.
